Test results reported in PubChem BioAssay (NCI).
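A five-concentration, 48-hour dose response in 96-well plates underlies each endpoint, interpolated linearly between surrounding concentrations. GI50 marks 50% less growth. TGI denotes the concentration required for complete inhibition of growth.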

How the values were obtained:
Test in all cases: growth of human tumour cells (NCI), 48 h
786-0 renal = tested on: 786-0 renal
HL-60(TB) leukemia = tested on: HL-60(TB) leukemia
TK-10 renal = tested on: TK-10 renal
HT29 colon = tested on: HT29 colon
LOX IMVI melanoma = tested on: LOX IMVI melanoma
A549 NSCLC = tested on: A549 NSCLC
OVCAR-3 ovarian = tested on: OVCAR-3 ovarian
MALME-3M melanoma = tested on: MALME-3M melanoma
NCI-H23 lung = tested on: NCI-H23 lung
OVCAR-5 ovarian = tested on: OVCAR-5 ovarian

Structure (SMILES) | GI50 (786-0 renal) [µM] | TGI (786-0 renal) [µM] | GI50 (HL-60(TB) leukemia) [µM] | TGI (HL-60(TB) leukemia) [µM] | GI50 (TK-10 renal) [µM] | TGI (TK-10 renal) [µM] | GI50 (HT29 colon) [µM] | TGI (HT29 colon) [µM] | GI50 (LOX IMVI melanoma) [µM] | TGI (LOX IMVI melanoma) [µM] | GI50 (A549 NSCLC) [µM] | TGI (A549 NSCLC) [µM] | GI50 (OVCAR-3 ovarian) [µM] | TGI (OVCAR-3 ovarian) [µM] | GI50 (MALME-3M melanoma) [µM] | TGI (MALME-3M melanoma) [µM] | TGI (NCI-H23 lung) [µM] | TGI (OVCAR-5 ovarian) [µM] | GI50 (NCI-H23 lung) [µM] | GI50 (OVCAR-5 ovarian) [µM]
CC(=O)Nc1ccc(S(=O)(=O)NNC(=O)c2cccnc2Nc2ccc(Cl)cc2)cc1 | 48 | > 100 | 9.67 | > 100 | 25.3 | > 100 | 4 | > 100 | 24 | > 100 | 32.4 | > 100 | 3.73 | > 100 | > 100 | > 100 | – | – | – | –
C=C1C(=O)O[C@H]2C[C@@]3(C)[C@H](O)CCC(=C)[C@@H]3[C@@H](OC(C)=O)[C@H]12 | – | 32 | – | – | – | 24.1 | – | 25.9 | – | 19.7 | – | 33.7 | – | 26.9 | – | 3.52 | 27.6 | 25.3 | – | –
C=C1C(=O)OC2/C=C(\C=O)CC/C=C(\C)C(O)C[C@@H]12 (some centres undefined) | – | 11.6 | – | > 21.4 | – | 24.7 | – | 11.6 | – | 18.5 | – | 33.9 | – | 14.5 | – | 22.2 | 17.7 | 38.2 | – | –
COc1ccc2c(c1)[n+]([O-])c(/C(C)=N/NC(=O)CC#N)c[n+]2[O-] | – | > 100 | – | > 100 | – | > 100 | – | > 100 | – | > 100 | – | > 100 | – | > 100 | – | > 100 | > 100 | > 100 | – | –
COC(=O)C1=C(CS(=O)c2ccccc2[N+](=O)[O-])ON(C)C1c1ccccc1 (centres undefined) | – | > 100 | – | 38.6 | – | > 100 | – | > 100 | – | 28.9 | – | > 100 | – | > 100 | – | > 100 | > 100 | > 100 | – | –
O=C1CCCN1CC#CCN1CCCC1 | > 100 | > 100 | > 100 | > 100 | > 100 | > 100 | > 100 | > 100 | > 100 | > 100 | > 100 | > 100 | > 100 | > 100 | > 100 | > 100 | > 100 | > 100 | > 100 | > 100
CC(C)Oc1cc(O)c2c(c1)OCC=C2CCC(=O)O | – | > 100 | – | 42 | – | 76.8 | – | 53.1 | – | > 100 | – | > 100 | – | > 100 | – | – | > 100 | > 100 | – | –
COC(=O)CCCCCN=Cc1c(O)c(O)c(C(C)C)c2cc(C)c(-c3c(C)cc4c(C(C)C)c(O)c(O)c(C=NCCCCCC(=O)OC)c4c3O)c(O)c12 | 1.77 | 14.7 | 1.09 | 7.93 | 1.15 | > 32.5 | 1.29 | > 32.5 | 1.28 | 4.82 | 1.35 | > 32.5 | 1.27 | > 32.5 | 2.45 | > 32.5 | > 32.5 | – | 1.32 | –
COc1ccc(Cn2c(Cl)c(/C=C3/C(=O)Nc4ccccc43)c3cc(OC)c(C)cc32)cc1 | 3.92 | 31.7 | 4.05 | > 100 | 13.3 | > 100 | 4.1 | > 100 | 14.3 | > 100 | 7.86 | > 100 | 2.3 | 5.37 | 9.44 | > 100 | > 100 | > 100 | 4.78 | 6.06
Cc1nc(C(N)=S)sc1C(=O)C/C(=N/N)C(=O)Nc1cccc(Cl)c1C | – | > 100 | – | > 100 | – | > 100 | – | > 100 | – | > 100 | – | > 100 | – | > 100 | – | > 100 | > 100 | > 100 | – | –
COc1ccc(-c2cn[nH]c2-c2cc(OC)c3c(c2)OCCO3)cc1 | 0.369 | 26.8 | 0.0815 | 13 | 0.457 | 48.4 | 0.0421 | 11.2 | 0.581 | 15.2 | 0.102 | 46 | 0.0423 | 0.3 | 20.9 | 58.7 | > 100 | > 100 | 0.599 | 0.683
COC(=O)C1=C(C(=O)OC)SC(=C(Cl)C(=S)Sc2ccccc2N)S1 | 16.9 | 36.1 | > 100 | > 100 | 30.9 | 64.3 | 93.9 | > 100 | 17.8 | 40.3 | 22.3 | 59.2 | 28.1 | 64.6 | > 100 | > 100 | 25.9 | 41.5 | 10.1 | 19.3
Cc1cc2c(=O)c3ccccc3[nH]c2c(C(=O)O)c1C | – | > 100 | – | > 100 | – | – | – | > 100 | – | – | – | > 100 | – | > 100 | – | – | > 100 | – | – | –
O=C1CCC(O)=C1O | – | > 100 | – | > 100 | – | > 100 | – | > 100 | – | > 100 | – | > 100 | – | > 100 | – | > 100 | > 100 | > 100 | – | –
O=C1Nc2cccc3cc(NCC(O)CCl)cc1c23 (centres undefined) | – | > 100 | – | > 100 | – | > 100 | – | > 100 | – | > 100 | – | > 100 | – | > 100 | – | > 100 | > 100 | > 100 | – | –
C/C(=N\NC(N)=S)c1nc2ccc(Cl)cc2[nH]1 | 1.59 | 7.96 | 1.55 | 19.9 | 2.6 | 20.7 | 2.32 | 14 | – | – | 2.3 | 9.95 | 2.85 | 14.1 | – | – | 13.7 | 18.1 | 5.51 | 5.71
